Experimental data published in patent US20250136578A1 (Kolm Therapeutics Inc., priority 2023, published 2025).

Legend:
Assay type in all cases: cell-based
AR / CBP ternary complex = AR / CBP ternary complex (Homo sapiens, UniProt P10275+Q92793); assay: Ternary complex formation assay (sandwich ELISA, AR capture, CBP antibody detection) in VCaP cell lysates; conditions: treated 1.5 hours, rabbit CBP or p300 antibody detection, average, read-out: Average Ternary Complex
In short: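 VCaP cells in 5% charcoal-stripped FBS were cultured ≥3 days and then given bifunctional compound for 1.5 h. Lysates went onto AR-antibody-coated plates. Bound CBP (or p300) was detected with a rabbit antibody plus HRP anti-rabbit, using QuantaRed chemifluorescence (ex 570/em 585) read immediately, at 5 min and at 15 min.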

VCaP cells = assay: VCaP growth inhibition assay (CTG); conditions: Homo sapiens, 216 h, 30 pM R1881, 9 days
In short: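 VCaP cells in phenol red-free DMEM with 5% charcoal-stripped serum were stimulated with 30 pM R1881 (final) and treated with compound from 100 nM to 10 fM final (1:5 dilutions) for 9 days at 37 °C. Viability was read by CellTiter-Glo luminescence, and IC50 came from 4-parameter logistic fits.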

HEK-293 cells = assay: HEK-293 growth inhibition assay (CTG); conditions: Homo sapiens, HEK293, 72 h, 3 days
Protocol: HEK-293 cells (ATCC Cat #CRL-1573) are plated at 3×10^3 cells per well of a white plastic 96-well cluster plate (Thermo Scientific Nunc Cat #165306) in 200 uL DMEM (ATCC Cat #30-2002) media with 10% FBS (Gibco Cat #26140-079). Cluster plates are returned to the incubator (37*C/5% CO2) for 24 hours prior to treatment. Compounds (200X) were added to each well in a volume of 1 uL, with serial dilutions (1:5) from 2 mM to 200 pM (final concentrations in well are 10 uM to 1 pM). Cluster plates are returned to the incubator for 3 days.
After the 3-day treatment period, 100 uL media was removed from each well by aspiration and 100 uL room temperature CTG reagent (Promega Cat #G7573) is added back to each well. The cluster plates are placed on a shaker and incubated at room temperature for 20 minutes. Following this shaking/incubation, cluster plates are read on a luminometer (BMG ClarioStar). IC50 values are obtained by graphing the RLU data vs. compound concentration with nonlinear regression 4-parameter logistic curves (GraphPad Prism).

Chain of AR / CBP ternary complex (P10275 whole entry): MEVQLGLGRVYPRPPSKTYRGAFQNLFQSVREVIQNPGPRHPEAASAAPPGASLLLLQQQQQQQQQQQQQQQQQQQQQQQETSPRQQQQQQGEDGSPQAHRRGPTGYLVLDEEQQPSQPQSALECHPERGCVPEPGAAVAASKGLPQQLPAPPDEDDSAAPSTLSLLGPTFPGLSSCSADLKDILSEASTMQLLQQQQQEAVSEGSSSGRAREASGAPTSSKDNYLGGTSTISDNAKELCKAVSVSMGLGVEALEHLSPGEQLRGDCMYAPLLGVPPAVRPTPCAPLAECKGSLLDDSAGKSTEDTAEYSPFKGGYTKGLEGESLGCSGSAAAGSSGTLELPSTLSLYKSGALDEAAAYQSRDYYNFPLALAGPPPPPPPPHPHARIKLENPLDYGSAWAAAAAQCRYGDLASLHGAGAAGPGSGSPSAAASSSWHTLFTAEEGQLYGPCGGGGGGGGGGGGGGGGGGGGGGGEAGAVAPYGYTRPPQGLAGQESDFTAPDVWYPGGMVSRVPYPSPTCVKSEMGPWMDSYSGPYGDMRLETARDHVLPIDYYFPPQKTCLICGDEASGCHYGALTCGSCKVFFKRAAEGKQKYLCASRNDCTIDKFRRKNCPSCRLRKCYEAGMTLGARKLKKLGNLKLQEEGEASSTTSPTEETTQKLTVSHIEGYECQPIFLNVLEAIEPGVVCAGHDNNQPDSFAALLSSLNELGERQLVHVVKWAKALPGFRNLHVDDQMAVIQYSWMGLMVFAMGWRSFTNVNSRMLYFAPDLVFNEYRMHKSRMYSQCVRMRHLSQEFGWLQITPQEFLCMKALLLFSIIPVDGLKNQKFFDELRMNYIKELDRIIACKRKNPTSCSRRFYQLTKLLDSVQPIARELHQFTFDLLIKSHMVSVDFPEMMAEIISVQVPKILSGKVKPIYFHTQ
Chain of AR / CBP ternary complex (Q92793 2-2442): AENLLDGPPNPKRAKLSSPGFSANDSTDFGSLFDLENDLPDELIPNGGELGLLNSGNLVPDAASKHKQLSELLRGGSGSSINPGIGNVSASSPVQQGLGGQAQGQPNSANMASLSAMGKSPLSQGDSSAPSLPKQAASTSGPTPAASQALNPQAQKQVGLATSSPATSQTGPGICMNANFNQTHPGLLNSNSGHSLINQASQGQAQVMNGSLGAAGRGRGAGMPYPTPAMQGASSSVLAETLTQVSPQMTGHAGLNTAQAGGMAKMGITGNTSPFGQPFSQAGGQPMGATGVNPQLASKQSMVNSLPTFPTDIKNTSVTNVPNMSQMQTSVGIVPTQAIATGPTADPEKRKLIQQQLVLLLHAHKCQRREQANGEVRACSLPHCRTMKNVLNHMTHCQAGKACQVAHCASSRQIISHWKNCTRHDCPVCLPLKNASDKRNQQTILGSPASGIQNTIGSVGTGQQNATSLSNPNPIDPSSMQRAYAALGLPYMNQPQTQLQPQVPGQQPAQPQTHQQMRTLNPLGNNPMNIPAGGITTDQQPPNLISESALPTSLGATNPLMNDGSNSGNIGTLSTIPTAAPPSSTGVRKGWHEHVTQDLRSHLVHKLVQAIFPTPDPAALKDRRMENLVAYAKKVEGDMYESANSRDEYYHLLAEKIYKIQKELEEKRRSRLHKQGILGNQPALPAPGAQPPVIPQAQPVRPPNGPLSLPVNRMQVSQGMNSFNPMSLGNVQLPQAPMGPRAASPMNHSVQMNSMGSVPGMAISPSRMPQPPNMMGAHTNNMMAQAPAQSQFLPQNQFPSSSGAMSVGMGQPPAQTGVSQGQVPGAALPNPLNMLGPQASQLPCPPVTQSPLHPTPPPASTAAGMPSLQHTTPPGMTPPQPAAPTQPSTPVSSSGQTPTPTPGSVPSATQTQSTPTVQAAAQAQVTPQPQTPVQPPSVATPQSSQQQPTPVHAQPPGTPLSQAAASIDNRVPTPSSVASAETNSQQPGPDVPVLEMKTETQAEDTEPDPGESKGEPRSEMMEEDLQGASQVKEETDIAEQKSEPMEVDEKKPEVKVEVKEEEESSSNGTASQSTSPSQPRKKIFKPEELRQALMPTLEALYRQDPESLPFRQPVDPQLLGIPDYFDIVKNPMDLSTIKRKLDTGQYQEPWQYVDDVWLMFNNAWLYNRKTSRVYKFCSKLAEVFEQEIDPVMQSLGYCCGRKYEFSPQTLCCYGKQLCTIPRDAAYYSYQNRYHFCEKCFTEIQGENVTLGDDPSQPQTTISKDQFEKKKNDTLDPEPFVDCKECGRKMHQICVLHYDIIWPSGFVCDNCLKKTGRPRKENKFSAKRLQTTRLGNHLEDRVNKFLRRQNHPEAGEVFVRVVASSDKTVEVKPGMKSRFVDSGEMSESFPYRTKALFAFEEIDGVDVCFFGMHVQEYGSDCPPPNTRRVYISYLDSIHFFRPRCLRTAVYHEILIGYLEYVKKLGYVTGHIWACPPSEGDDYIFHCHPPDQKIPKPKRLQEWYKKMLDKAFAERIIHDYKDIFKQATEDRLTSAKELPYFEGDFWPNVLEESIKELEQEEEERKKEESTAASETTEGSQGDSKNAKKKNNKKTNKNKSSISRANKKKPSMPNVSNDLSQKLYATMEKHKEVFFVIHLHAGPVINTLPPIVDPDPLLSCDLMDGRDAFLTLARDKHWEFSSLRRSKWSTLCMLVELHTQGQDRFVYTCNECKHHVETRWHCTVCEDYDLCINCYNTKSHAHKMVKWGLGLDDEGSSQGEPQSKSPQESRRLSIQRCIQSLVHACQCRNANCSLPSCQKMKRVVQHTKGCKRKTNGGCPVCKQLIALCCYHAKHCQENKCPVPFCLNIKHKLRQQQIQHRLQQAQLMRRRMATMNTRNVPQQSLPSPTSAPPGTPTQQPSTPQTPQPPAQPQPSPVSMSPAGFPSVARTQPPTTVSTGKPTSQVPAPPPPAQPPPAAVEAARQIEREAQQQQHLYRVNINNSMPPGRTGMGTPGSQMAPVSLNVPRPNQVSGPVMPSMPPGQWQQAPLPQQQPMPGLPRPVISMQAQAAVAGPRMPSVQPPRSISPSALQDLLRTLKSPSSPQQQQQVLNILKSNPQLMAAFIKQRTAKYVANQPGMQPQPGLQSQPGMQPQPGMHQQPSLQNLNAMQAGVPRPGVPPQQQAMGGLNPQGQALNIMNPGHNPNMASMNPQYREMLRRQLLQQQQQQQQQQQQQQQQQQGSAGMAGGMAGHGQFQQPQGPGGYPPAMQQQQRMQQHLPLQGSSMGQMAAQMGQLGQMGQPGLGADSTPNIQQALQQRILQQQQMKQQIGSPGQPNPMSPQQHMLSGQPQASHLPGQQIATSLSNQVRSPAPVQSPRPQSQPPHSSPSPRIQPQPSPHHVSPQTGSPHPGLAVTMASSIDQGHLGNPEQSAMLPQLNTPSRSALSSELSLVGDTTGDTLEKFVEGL

Compound	EC50 (AR / CBP ternary complex) [nM]	IC50 (VCaP cells) [nM]	IC50 (HEK-293 cells) [µM]
CC(=O)N1CCc2c(c(N3CCCc4cc(-c5cnn(C)c5)c(C(F)F)cc43)nn2C2CCN(C(=O)COC3CCN(c4ccc(C(=O)N[C@H]5CC[C@H](Oc6ccc(C#N)c(Cl)c6)CC5)nn4)CC3)CC2)C1 [Compound 1, 6-[4-[2-[4-[5-acetyl-3-[7-(difluoromethyl)-6-(1-methylpyrazol-4-yl)-3,4-dihydro-2H-quinolin-1-yl]-6,7-dihydro-4H-pyrazolo[4,3-c]pyridin-1-yl]-1-piperidyl]-2-oxo-ethoxy]-1-piperidyl]-N-[4-(3-chloro-4-cyano-phenoxy)cyclohexyl]pyridazine-3-carboxamide]	< 1	≤ 0.1	> 10
C[C@@H]1CC(=O)Nc2cccc(N3CCCc4cc(-c5cnn(CCC6CCN(c7ccc(C(=O)N[C@H]8CC[C@H](Oc9ccc(C#N)c(Cl)c9)CC8)nn7)CC6)c5)c(C(F)F)cc43)c2N1 [Compound 36, N-[4-(3-chloro-4-cyano-phenoxy)cyclohexyl]-6-[4-[2-[4-[7-(difluoromethyl)-1-[(4R)-4-methyl-2-oxo-1,3,4,5-tetrahydro-1,5-benzodiazepin-6-yl]-3,4-dihydro-2H-quinolin-6-yl]pyrazol-1-yl]ethyl]-1-piperidyl]pyridazine-3-carboxamide]	10 to 100	1 to 100	
CC(=O)N1CCc2c(c(N3CCCc4ccc(C(F)F)cc43)nn2C2CC3(C2)CN(C(=O)C2CC4(C2)CN(c2ccc(C(=O)N[C@H]5CC[C@H](Oc6ccc(C#N)c(Cl)c6)CC5)nn2)C4)C3)C1 (stereo partly shown) [Compound 42, 6-[6-[6-[5-acetyl-3-[7-(difluoromethyl)-3,4-dihydro-2H-quinolin-1-yl]-6,7-dihydro-4H-pyrazolo[4,3-c]pyridin-1-yl]-2-azaspiro[3.3]heptane-2-carbonyl]-2-azaspiro[3.3]heptan-2-yl]-N-[4-(3-chloro-4-cyano-phenoxy)cyclohexyl]pyridazine-3-carboxamide]	1 to 10	0.1 to 1	

The next lines start with results.

EC50 (AR / CBP ternary complex) [nM]	IC50 (VCaP cells) [nM]	Compound	IC50 (HEK-293 cells) [µM]
1 to 10	0.1 to 1	C[C@@H]1CC(=O)Nc2cc(C3CCN(CC4CCN(c5ccc(C(=O)N[C@H]6CC[C@H](Oc7ccc(C#N)c(Cl)c7)CC6)nn5)CC4)CC3)cc(-c3ccc4c(c3)c(C3CC3)nn4C)c2N1 [Compound 88, N-[4-(3-chloro-4-cyano-phenoxy)cyclohexyl]-6-[4-[[4-[(4R)-6-(3-cyclopropyl-1-methyl-indazol-5-yl)-4-methyl-2-oxo-1,3,4,5-tetrahydro-1,5-benzodiazepin-8-yl]-1-piperidyl]methyl]-1-piperidyl]pyridazine-3-carboxamide]	
< 1	≤ 0.1	COc1cc(O[C@H]2CC[C@H](NC(=O)c3ccc(N4CCC(CN5CCC(n6nc(N7CCCc8cc(-c9cnn(C)c9)c(C(F)F)cc87)c7c6CCN(C(C)=O)C7)CC5)CC4)cc3)CC2)ccc1C#N [Compound 140, 4-[4-[[4-[5-acetyl-3-[7-(difluoromethyl)-6-(1-methylpyrazol-4-yl)-3,4-dihydro-2H-quinolin-1-yl]-6,7-dihydro-4H-pyrazolo[4,3-c]pyridin-1-yl]-1-piperidyl]methyl]-1-piperidyl]-N-[4-(4-cyano-3-methoxy-phenoxy)cyclohexyl]benzamide]	
< 1	≤ 0.1	C[C@@H]1CC(=O)Nc2cc(C3CCN(CC4CCN(c5ccc(C(=O)N[C@H]6CC[C@H](Oc7ccc(C#N)c(Cl)c7)CC6)nn5)CC4)CC3)cc(-c3ccc4c(cnn4C)c3)c2N1 [Compound 89]	
